# Key:
# [1] = Assessment of water-solubility; assay type: physicochemical; settings: assessed similarly to Example 1
# Method: The water solubility of a compound of formula (I-2) was assessed similarly to Example 1, to check that the compound is water soluble.
# [2] = Photochromic property: absorption and fluorescence spectra in solution; assay type: physicochemical
# Method: The spectrum of the open ring form is shown by dotted line 10. Irradiation with the UV light (313 nm) turned the solution purple, and a spectrum shown by solid line 20 was observed.
# The water solubility of a compound of formula (I-2) was assessed similarly to Example 1, to check that the compound is water soluble. Specifically, the compound of (1-2) was dissolved in a small amount of methanol (0.2 mL), and distilled water (4 mL) was added to prepare a 95% aqueous solution, and an absorption spectrum of FIG. 2 (by Hitachi, using U-4100) was obtained as a result. The spectrum of the open ring form is shown by dotted line 10. Irradiation with a UV light (313 nm) turned the solution yellow, and a spectrum shown by solid line 20 was observed. In addition, the irradiation with the UV light made the compound fluorescent, and a spectrum of solid line 30 was obtained.
# Curve 10 is a spectrum of the compound (open ring form) of formula (I-3), and the maximum absorption wave length was 254 nm. Then, an aqueous solution of the compound of formula (I-3) was irradiated with light of 254 nm to obtain a photostationary state (PSS), in which the ring closing reaction has ended. The spectrum at this state is shown as curve 20. The maximum absorption wavelength of the closed ring form was 595 nm.
# About 0.5 mg of the given compound was dissolved in each of 0.5 mL of water/methanol (weight rate of 90/10) and 0.5 mL of only methanol to prepare a solution. For convenience, the former will be referred to as an aqueous solution, and the latter will be referred to as a methanol solution. Curve 10 is a spectrum of the compound of formula (I-4) (open ring form). In the methanol solution, the maximum absorption wavelength is 450 nm, and the molar absorption coefficient was 39000 M^−1 cm^−1. The absorption disappeared when irradiated with visible light, and the solution returned to a colorless state. Curve 20 is a spectrum of the closed ring form. […] Further, the fluorescence disappeared when the compound returned to the open ring form.
# In the aqueous solution, the maximum absorption wavelength of the open ring form was 458 nm, and the molar absorption coefficient was 36000 M^−1 cm^−1. The absorption disappeared when irradiated with visible light, and the solution returned to a colorless state. […] Further, the fluorescence disappeared when the compound returned to the open ring form.
# [3] = 95% aqueous solution, UV 313 nm
Structure (SMILES),water solubility [1],"colour of solution after irradiation with UV light [2, 3]","fluorescence after irradiation with UV light [2, 3]","maximum absorption wave length, open ring form ([2]; aqueous solution) [nm]","maximum absorption wavelength, closed ring form ([2]; aqueous solution, photostationary state after 254 nm light) [nm]","photochromism ([2]; aqueous solution, visible light longer than 600 nm)"
CC1=C(C2=C(C3=C(C)S(=O)(=O)c4cc(CO[C@@H]5O[C@H](CO)[C@@H](O)[C@H](O)[C@H]5O)ccc43)C(F)(F)C(F)(F)C2(F)F)c2ccc(CO[C@@H]3O[C@H](CO)[C@@H](O)[C@H](O)[C@H]3O)cc2S1(=O)=O [I-2],water soluble,yellow,fluorescent,,,
Cc1sc(C(=O)O[C@@H]2[C@H](O)[C@@H](O)[C@H](O)[C@@H](O)[C@@H]2O)cc1C1=C(c2cc(C(=O)O[C@@H]3[C@H](O)[C@@H](O)[C@H](O)[C@@H](O)[C@@H]3O)sc2C)C(F)(F)C(F)(F)C1(F)F [I-3],water soluble,,,254,595,reversible photochromism
